Assay: Solubility in a mixture of water and glycerol
Assay type: physicochemical
Conditions: experimental studies, no figures given

solubility in a mixture of water and glycerol: high solubility
SMILES: O=C(C1CCCCC1)N1CC(=O)N2CCc3ccccc3C2C1 (racemic) [praziquantel, (RS)-2-(Cyclohexylcarbonyl)-2,3,4,6,7,11b-hexahydro-1H-pyrazino[2,1-a]isochinoline-4-on]

Source: patent US20230107039A1, “SOFT CHEWABLE FORMED BODY FOR THE ADMINISTRATION TO ANIMALS” (Bayer Animal Health GmbH, priority 2020, published 2023)
